How the values were obtained:
Format in all cases: in vivo
[1] = system: barnyard grass (Eo); experiment: Test Example 1: herbicidal effects by flooded paddy field treatment; parameters: herbicidal effects, Eo (barnyard grass):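 0-5 growth inhibition grade; 5 = over 90%; 4 = 70-90%; 3 = 50-70%; 2 = 30-50%; 1 = 10-30%; 0 = under 10%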; conditions: for herbicidal effects, Eo (barnyard grass): dose 100 g active ingredient per 10 ares, examined on the 21st day after treatment, standards of Table 44; for Herbicidal effect index, Eo: dose 100 gai/10a, examined on 21st day after treatment, index 0-5 per Table 44;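 on Herbicidal effect index, Eo: 0-5 growth inhibition grade; 5 = over 90%; 4 = 70-90%; 3 = 50-70%; 2 = 30-50%; 1 = 10-30%; 0 = under 10%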
Description: (§1) In a 100 cm^2 plastic pot, paddy field soil was filled and paddled. Then, seeds of barnyard grass (Eo) and monochoria (Mo) were sown, and water was introduced to a depth of 3 cm. Next day, a wettable powder prepared in accordance with Formulation Example 1 was diluted with water and dropwise applied to the water surface. The dose was 100 g of the active ingredient per 10 ares. Thereafter, cultivation was carried out in a green house, and on the 21st day after the treatment, the herbicidal effects were examined in accordance with the standards as identified in Table 44.

[2] = system: monochoria (Mo); experiment: as above; parameters: herbicidal effects, Mo (monochoria):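 0-5 growth inhibition grade; 5 = over 90%; 4 = 70-90%; 3 = 50-70%; 2 = 30-50%; 1 = 10-30%; 0 = under 10%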; conditions: for herbicidal effects, Mo (monochoria): dose 100 g active ingredient per 10 ares, examined on the 21st day after treatment, standards of Table 44; for Herbicidal effect index, Mo: dose 100 gai/10a, examined on 21st day after treatment, index 0-5 per Table 44
Description: as §1

[3] = system: monochoria (Mo); experiment: Test Example 4: selectivity for a crop plant by flooded paddy field treatment; parameters: scale not given here; conditions: for Mo (herbicidal effect index): monochoria, dose 25 gai/10a, 21st day after treatment, index per Table 44; for Mo (herbicidal effects, index): dose 25 g active ingredient per 10 ares, examined on the 21st day after treatment
Description: as §1, with “pot, a” for “pot,”, “sown, and rice (Or) of second leaf stage was transplanted,” for “sown,”, “was 25” for “was 100”, “standards of” for “standards as identified in”

[4] = system: rice (Or); experiment: as above; parameters: scale not given here; conditions: rice transplanted at second leaf stage; for Or (herbicidal effect index on crop): dose 25 gai/10a, 21st day after treatment, index per Table 44; for Or (effect on crop plant rice, index): dose 25 g active ingredient per 10 ares, examined on the 21st day after treatment
Description: as §1, with “pot, a” for “pot,”, “sown, and rice (Or) of second leaf stage was transplanted,” for “sown,”, “was 25” for “was 100”, “standards of” for “standards as identified in”

[5] = system: barnyard grass (Eo); experiment: as above; parameters: scale not given here; conditions: for Eo (herbicidal effect index): barnyard grass, dose 25 gai/10a, 21st day after treatment, index per Table 44; for Eo (herbicidal effects, index): dose 25 g active ingredient per 10 ares, examined on the 21st day after treatment
Description: as §1, with “pot, a” for “pot,”, “sown, and rice (Or) of second leaf stage was transplanted,” for “sown,”, “was 25” for “was 100”, “standards of” for “standards as identified in”
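Wherever Herbicidal effect index, Mo is given: 0-5 growth inhibition grade; 5 = over 90%; 4 = 70-90%; 3 = 50-70%; 2 = 30-50%; 1 = 10-30%; 0 = under 10%.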

| Structure (SMILES) | herbicidal effects, Eo (barnyard grass) [1] | herbicidal effects, Mo (monochoria) [2] | Mo (herbicidal effect index) [3] | Or (herbicidal effect index on crop) [4] | Eo (herbicidal effect index) [5] | Herbicidal effect index, Eo [1] | Herbicidal effect index, Mo [2] | Mo (herbicidal effects, index) [3] | Or (effect on crop plant rice, index) [4] | Eo (herbicidal effects, index) [5] |
| --- | --- | --- | --- | --- | --- | --- | --- | --- | --- | --- |
| CN(C(=O)Cc1ccc(Cl)s1)C(c1cncnc1C(F)(F)F)C(C)(C)C (racemic) [2-42] | 5 | 5 | 5 | 0 | 5 | – | – | – | – | – |
| CC(C)C(c1cncnc1C(F)(F)F)N(C)C(=O)COc1nc2ccccc2s1 (racemic) [2-48] | 5 | 5 | 5 | 1 | 5 | – | – | – | – | – |
| O=C(Cc1ccc(C(F)(F)F)cc1)NC(c1cncnc1C(F)(F)Cl)C1CC1 (racemic) [Compound 1-4] | – | – | – | – | – | 5 | 5 | 4 | 1 | 5 |
| COc1ccc(SC(=O)N(C)C(c2cncnc2C(F)(F)Cl)C(C)C)cc1 (racemic) [Compound 1-18] | – | – | – | – | – | 5 | 5 | 4 | 1 | 5 |
| CC(C)C(c1cncnc1C(F)(F)F)N(C)C(=O)Cc1cccc(C(F)(F)F)c1 (racemic) [Compound 1-39] | – | – | – | – | – | 5 | 5 | 5 | 0 | 5 |
| CC(C)C(c1cncnc1C(F)(F)F)N(C)C(=O)Cc1ccc(C(C)(C)C)cc1 (racemic) [Compound 1-43] | – | – | – | – | – | 5 | 5 | 5 | 1 | 5 |
| CSc1ccc(CC(=O)N(C)C(c2cncnc2C(F)(F)F)C(C)C)cc1 (racemic) [Compound 1-44] | – | – | – | – | – | 5 | 5 | 5 | 0 | 5 |
| Cc1ccc(CC(=O)N(C2CC2)C(c2cncnc2C(F)(F)F)C(C)C)cc1 (racemic) [Compound 1-82] | – | – | – | – | – | 5 | 5 | 5 | 0 | 5 |
| CC(C)C(c1cncnc1C(F)(F)F)N(C)C(=O)C=Cc1ccc(Cl)cc1 (racemic) [Compound 1-86] | – | – | – | – | – | 5 | 5 | 5 | 0 | 5 |
| Cc1ccc(CC(=O)N(C)C(c2cncnc2C(F)(F)Cl)C2CC2)cc1 (racemic) [Compound 1-93] | – | – | – | – | – | 5 | 5 | 5 | 0 | 5 |
| CC(C)C(c1cncnc1C(F)(F)F)N(C)C(=O)Cc1ccc(S(C)(=O)=O)cc1 (racemic) [Compound 1-104] | – | – | 5 | 1 | 5 | 5 | 5 | – | – | – |
| CC(C)C(c1cncnc1C(F)(F)F)N(C)C(=O)COc1ccccc1Cl (racemic) [Compound 1-132] | 5 | 5 | 5 | 0 | 5 | – | – | – | – | – |
| COC(=O)c1ncncc1C(C(C)C)N(C)C(=O)C(C)c1ccc(Cl)cc1 (single isomer, unassigned) [1-593] | 5 | 5 | 4 | 0 | 5 | – | – | – | – | – |

— patent US6806230B1, “Pyrimidine derivatives and herbicides containing them” (Kumiai Chemical Industry Co., Ltd., priority 1999, dated 2004)
